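48-hour exposure; five concentrations; linearly interpolated endpoints. The concentration for 50% growth inhibition is given as GI50.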 Active and inactive are the calls of the source. Cut-off read from the data, not from the text of the source: active = GI50 up to about 1.1 µM and inactive = higher.
What was measured:
Assay in all cases: NCI tumour cell line growth inhibition, 48 h
Malme-3M = system: Malme-3M
SNB-75 = system: SNB-75
LOX IMVI = system: LOX IMVI
SF-268 = system: SF-268
SK-MEL-5 = system: SK-MEL-5
UACC-257 = system: UACC-257
HL-60 = system: HL-60
HOP-62 = system: HOP-62
U-251 = system: U-251
SNB-19 = system: SNB-19
CCRF-CEM = system: CCRF-CEM
SN12C = system: SN12C
SK-MEL-2 = system: SK-MEL-2
CAKI-1 = system: CAKI-1
SF-539 = system: SF-539
MCF7 = system: MCF7
MDA-MB-231 = system: MDA-MB-231
MDA-N = system: MDA-N
MDA-MB-435 = system: MDA-MB-435

Measured: GI50

CCSC1(SCC)CC(Cc2ccc(OC)cc2)N(/C=N/C(C)(C)C)C1 (centres undefined)
inactive: Malme-3M 20.1 µM | SNB-75 26.2 µM | LOX IMVI 15.1 µM | SF-268 61 µM | SK-MEL-5 16.4 µM | UACC-257 20.2 µM | HL-60 10.6 µM | HOP-62 56.9 µM | U-251 19.1 µM | SNB-19 38.7 µM | CCRF-CEM 15.2 µM | SN12C 25 µM | SK-MEL-2 33.1 µM | CAKI-1 21 µM | SF-539 54.5 µM

O=C1c2ccccc2C2(O)Nc3c(ccc4ccccc34)C12O (centres undefined)
inactive: Malme-3M > 100 µM | SNB-75 > 100 µM | LOX IMVI > 100 µM | SF-268 > 100 µM | SK-MEL-5 72.8 µM | UACC-257 > 100 µM | HL-60 97.1 µM | HOP-62 > 100 µM | U-251 > 100 µM | SNB-19 85.3 µM | CCRF-CEM 55.3 µM | SN12C > 100 µM | SK-MEL-2 > 100 µM | CAKI-1 > 100 µM | SF-539 > 100 µM

[BH3-][P+]1(CC[P@@+]([BH3-])(c2ccccc2)c2ccccc2OC)[C@@H](C)[C@@H](O)[C@H](O)[C@@H]1C (some centres undefined)
inactive: Malme-3M 11.2 µM | MCF7 18.2 µM | SNB-75 14.8 µM | LOX IMVI 2.44 µM | SF-268 17.2 µM | SK-MEL-5 15.7 µM | UACC-257 4.19 µM | HL-60 23.2 µM | HOP-62 16.9 µM | MDA-MB-231 16 µM | U-251 16.9 µM | SNB-19 17 µM | CCRF-CEM 24.2 µM | SN12C 13.4 µM | SK-MEL-2 15.7 µM | MDA-N 16 µM | CAKI-1 15.6 µM | SF-539 16.5 µM | MDA-MB-435 16.7 µM

CCn1cc(/C=C/C(C)c2cn(CC)c(=O)[nH]c2=O)c(=O)[nH]c1=O (centres undefined)
inactive: Malme-3M > 100 µM | SNB-75 84.7 µM | LOX IMVI > 100 µM | SF-268 > 100 µM | SK-MEL-5 > 100 µM | UACC-257 > 100 µM | HL-60 > 100 µM | HOP-62 > 100 µM | U-251 > 100 µM | SNB-19 > 100 µM | CCRF-CEM > 100 µM | SN12C > 100 µM | SK-MEL-2 > 100 µM | CAKI-1 > 100 µM | SF-539 > 100 µM

Cn1c(=O)c2nc[nH]c2n(C)c1=O [THEOPHYLLINE]
inactive: Malme-3M > 100 µM | MCF7 > 100 µM | LOX IMVI > 100 µM | SK-MEL-5 > 100 µM | UACC-257 > 100 µM | HL-60 > 100 µM | HOP-62 > 100 µM | MDA-MB-231 > 100 µM | CCRF-CEM > 100 µM | SN12C > 100 µM | SK-MEL-2 > 100 µM | MDA-N > 100 µM | CAKI-1 22.9 µM

N#CC12CC3(CCC1CCC1(C2)OCCO1)OCCO3 (centres undefined)
inactive: Malme-3M > 100 µM | SNB-75 > 100 µM | LOX IMVI > 100 µM | SF-268 > 100 µM | SK-MEL-5 > 100 µM | UACC-257 > 100 µM | HL-60 > 100 µM | HOP-62 > 100 µM | U-251 > 100 µM | SNB-19 > 100 µM | CCRF-CEM > 100 µM | SN12C > 100 µM | SK-MEL-2 > 100 µM | CAKI-1 > 100 µM | SF-539 > 100 µM

O=C(CCc1nnc2s/c(=C\c3ccccc3)c(=O)n12)Nc1cc(Cl)ccc1Cl
inactive: Malme-3M > 100 µM | SNB-75 > 100 µM | LOX IMVI > 100 µM | SF-268 > 100 µM | SK-MEL-5 > 100 µM | UACC-257 > 100 µM | HL-60 > 100 µM | HOP-62 > 100 µM | U-251 > 100 µM | SNB-19 > 100 µM | CCRF-CEM > 100 µM | SN12C > 100 µM | SK-MEL-2 > 100 µM | CAKI-1 > 100 µM | SF-539 > 100 µM

Fc1sc2c(c1F)C1CCC2C1 (centres undefined)
inactive: Malme-3M > 100 µM | MCF7 > 100 µM | SNB-75 > 100 µM | LOX IMVI 42.5 µM | SF-268 > 100 µM | SK-MEL-5 > 100 µM | UACC-257 40.9 µM | HOP-62 > 100 µM | MDA-MB-231 83.2 µM | U-251 97.7 µM | SNB-19 > 100 µM | SN12C > 100 µM | SK-MEL-2 > 100 µM | MDA-N 63.4 µM | CAKI-1 > 100 µM | SF-539 > 100 µM | MDA-MB-435 56.4 µM

COc1cc(O)c2c(c1)OCC(Cc1ccc(O)cc1)C2=O (centres undefined)
inactive: Malme-3M > 100 µM | SNB-75 74.3 µM | LOX IMVI > 100 µM | SF-268 80.5 µM | SK-MEL-5 44.4 µM | UACC-257 > 100 µM | HL-60 > 100 µM | HOP-62 > 100 µM | MDA-MB-231 > 100 µM | U-251 > 100 µM | SNB-19 > 100 µM | CCRF-CEM > 100 µM | SN12C > 100 µM | SK-MEL-2 > 100 µM | MDA-N > 100 µM | CAKI-1 68.5 µM | SF-539 > 100 µM | MDA-MB-435 > 100 µM

COCCCCCC(=O)CP(=O)(OC)OC
inactive: Malme-3M > 100 µM | SNB-75 > 100 µM | LOX IMVI > 100 µM | SF-268 > 100 µM | SK-MEL-5 > 100 µM | UACC-257 > 100 µM | HL-60 86.3 µM | HOP-62 > 100 µM | U-251 > 100 µM | SNB-19 > 100 µM | CCRF-CEM > 100 µM | SN12C > 100 µM | SK-MEL-2 > 100 µM | CAKI-1 > 100 µM | SF-539 > 100 µM

CCC(C)c1cccc(C)c1NC(=O)C(=O)Cc1nc2ccccc2s1 (centres undefined)
inactive: Malme-3M > 100 µM | SNB-75 > 100 µM | LOX IMVI > 100 µM | SF-268 > 100 µM | SK-MEL-5 > 100 µM | UACC-257 > 100 µM | HL-60 > 100 µM | HOP-62 > 100 µM | U-251 > 100 µM | SNB-19 > 100 µM | CCRF-CEM > 100 µM | SN12C > 100 µM | SK-MEL-2 > 100 µM | CAKI-1 > 100 µM | SF-539 > 100 µM

COc1cc2c[n+]3c4c(c2c(OC)c1OC)CCCC4CC3 (centres undefined)
inactive: Malme-3M 15.5 µM | SK-MEL-5 19.3 µM | UACC-257 35.6 µM | HOP-62 > 100 µM | MDA-MB-231 > 100 µM | U-251 17 µM | SNB-19 36.6 µM | CCRF-CEM 35.3 µM | SK-MEL-2 > 100 µM | MDA-N > 100 µM | CAKI-1 > 100 µM | MDA-MB-435 > 100 µM

COc1ccc(NC(=O)CC/C(CC(=O)c2ccco2)=N/Nc2ccc([N+](=O)[O-])cc2[N+](=O)[O-])cc1
inactive: Malme-3M > 100 µM | SNB-75 > 100 µM | LOX IMVI 39.7 µM | SF-268 64 µM | SK-MEL-5 48.4 µM | UACC-257 49.8 µM | HL-60 30.1 µM | HOP-62 > 100 µM | U-251 > 100 µM | SNB-19 > 100 µM | CCRF-CEM 23.7 µM | SN12C > 100 µM | SK-MEL-2 72.1 µM | CAKI-1 > 100 µM | SF-539 > 100 µM
